In the oligonucleotide strings, read from the 5' end, every base follows the letter of its sugar. An asterisk marks phosphorothioate; unmarked linkages are phosphodiester. Other units and linkages are bracketed, terminal groups are in braces. A string of capitals states the bases alone. {NAG37} = tridentate N-acetyl-galactosamine targeting ligand, structure (NAG37)s; [invAb] = inverted abasic unit; m = 2'-O-methyl; f = 2'-fluoro
How the values were obtained:
[1] = tested on: ANGPTL3 gene; assay: Example 6: serum triglycerides in mice; assay type: in vivo, C57bl/6 mice
Description: To assess the in vivo activity of additional ANGPTL3 RNAi agents that are designed to target position 304 on the ANGPTL3 gene, six- to eight-week-old female C57bl/6 mice were used. Pre-dose serum samples were taken at day −1 after a four hour fast. At day 1, each mouse was given a single subcutaneous administration of 200 μl containing 0.5 mg/kg (mpk) of an ANGPTL3 RNAi agent in D5W (dextrose in 5% water), or control (D5W) with no RNAi agent, according to the dosing groups recited in Table 25.
Each of the RNAi agents included a modified sequence and an N-acetyl-galactosamine-containing targeting ligand conjugated to the 5′ terminal end of the sense strand. (See Tables 3, 4, and 5 for modified sequences and targeting ligand structures). The injections were performed between the skin and muscle (i.e. subcutaneous injections) into the loose skin over the neck and shoulder area. Three (3) mice in each group were tested (n=3). Serum was collected on days 8, 15, 22, 30, and on day 43 for certain groups (i.e., Groups 1, 2, 5, and 10 only). Mice were fasted for four hours prior to each collection. ANGPTL3 protein levels in serum were measured by ELISA assay (R&D Systems), according to the manufacturer's recommendations. Triglycerides, total cholesterol, high-density lipoprotein (HDL), and low-density lipoprotein (LDL) in serum were measured on a Cobas® Integra 400 (Roche Diagnostics), according to the manufacturer's recommendations.
The ANGPTL3 protein levels, triglyceride levels, total cholesterol levels, HDL levels, and LDL levels for each animal were normalized. For normalization, the level of ANGPTL3 protein, triglyceride, HDL, and total cholesterol, respectively, for each animal at a time point, was divided by the pre-treatment level of expression in that animal (in this case at day −1) to determine the ratio of expression “normalized to pre-treatment.” Expression at a specific time point was then normalized to the D5W control group by dividing the “normalized to pre-treatment” ratio for an individual animal by the mean “normalized to pretreatment” ratio of all mice in the D5W control group.

[2] = tested on: ANGPTL3 protein; assay: Example 12: serum ANGPTL3 protein by ELISA in LDLR knockout mice; assay type: in vivo, LDLR KO mice
Description: (§1) To evaluate the effect of RNAi agent administration in a disease model, mice having a genetic mutation for the LDL receptor (referred to herein as LDLR KO mice) were commercially obtained (The Jackson Laboratory). The LDLR KO mice are homozygous for the Ldlr^tm1Her mutation, and have elevated serum cholesterol levels, particularly when placed on a high fat diet. For three weeks prior to the onset of the study, thirty-nine (39) LDLR KO mice were placed on a high fat diet (Teklad Custom Diets TD.88137). An additional eight (8) LDLR KO mice were placed on a normal chow diet over the same three-week period. Pre-dose serum samples were taken on day −15 and day −1 after a four hour fast. At day 1, each mouse was given a single subcutaneous administration of 200 μl/30 g animal body weight containing the respective mg/kg dose of an ANGPTL3 RNAi agent in D5W (dextrose in 5% water), control (D5W) with no RNAi agent, or a control RNAi agent that included a nucleotide sequence designed to target the Hepatitis B Virus (HBV) genome. A second injection of the same formulation was administered to the animals on day 29. The dosing regimen for the study is recited in the following Table 60:
(§2) Each mouse remained on its respective diet through the duration of study. The RNAi agent tested (AD05488) included a modified sequence and an N-acetyl-galactosamine-containing targeting ligand conjugated to the 5′ terminal end of the sense strand. (See Tables 3, […] modified sequences and targeting ligand structures). The injections were performed between the skin and muscle (i.e. subcutaneous injections) into the loose skin over the neck and shoulder area. Serum was collected on days 8, 15, 22, 29 (pre-second dose), 36, 43, 50, and 57. LDLR KO mice were fasted for four hours prior to each collection. On day 15, four (4) LDLR KO mice from Groups 1, 2, and 3 (i.e., the groups being administered the high fat “Western” diet) were sacrificed after serum collection, and on day 29, an additional four (4) LDLR KO mice from Groups 1, 2, and 3 were sacrificed after serum collection, for the purpose of performing mRNA assessments.
(§3) ANGPTL3 protein levels in serum were measured by ELISA assay (R&D Systems), according to the manufacturer's recommendations. Triglycerides, total cholesterol, high-density lipoprotein (HDL), and low-density lipoprotein (LDL) in serum were measured on a Cobas® Integra 400 (Roche Diagnostics), according to the manufacturer's recommendations.
(§4) The ANGPTL3 protein levels, triglyceride levels, total cholesterol levels, HDL levels, and LDL levels for each animal were normalized. For normalization, respective levels of ANGPTL3 protein, TG, total cholesterol, HDL, or LDL for each animal at a time point was divided by the average pre-treatment level of expression in that animal (in this case the average of day −15 and day −1) to determine the ratio of expression “normalized to pre-treatment.”
(§5) Expression at a specific time point was then normalized to the D5W control group that was administered the same diet (i.e., either the high fat “Western” diet or the normal chow-fed diet) by dividing the “normalized to pre-treatment” ratio for an individual animal by the mean “normalized to pretreatment” ratio of all mice in the D5W control group on the respective same diet, resulting in expression for each time point normalized to that in the control group.

[3] = tested on: ANGPTL3 gene; assay: Example 12: serum LDL in LDLR knockout mice; assay type: in vivo, LDLR KO mice; conditions: 3.0 mg/kg sc day 1
Description: as §1, §2, §3, §4, §5

[4] = day 57, two 3 mg/kg doses, LDLR KO mice on high fat Western diet

Substance: AD05488: RNAi agent duplex: antisense AM07235-AS, sense AM07234-SS (antisense mU*fA*mC*fUmGfAmUfCmAfAmAfUmAfUmGfUmUfGmAfG*mC; sense {NAG37}*[invAb]*mGmCmUmCmAmAmCmAfUfAfUmUmUmGmAmUmCmAmGmUmA*[invAb])
- Avg TG, normalized to pre-treatment and control ([1]; Day 8, 0.5 mg/kg single SC injection on day 1, n=3): 0.568
- Avg TG, normalized to pre-treatment and control ([1]; Day 15, 0.5 mg/kg single SC injection on day 1, n=3): 0.637
- Avg TG, normalized to pre-treatment and control ([1]; Day 22, 0.5 mg/kg single SC injection on day 1, n=3): 0.484
- Avg TG, normalized to pre-treatment and control ([1]; Day 30, 0.5 mg/kg single SC injection on day 1, n=3): 0.652
- Avg TG, normalized to pre-treatment and control ([1]; Day 43, 0.5 mg/kg single SC injection on day 1, n=3): 0.689
- reductions in ANGPTL3 protein levels ([2]; 3.0 mg/kg on days 1 and 29 (Groups 2 and 5), LDLR KO mice): significant reductions
- Avg ANGPTL3 Protein Normalized to Pre-Treatment and Control (Diet Matched) ([2]; 3.0 mg/kg sc day 1, High Fat Diet, Day 8): 0.013
- Avg ANGPTL3 Protein Normalized to Pre-Treatment and Control (Diet Matched) ([2]; 3.0 mg/kg sc day 1, High Fat Diet, Day 15): 0.009
- Avg ANGPTL3 Protein Normalized to Pre-Treatment and Control (Diet Matched) ([2]; 3.0 mg/kg sc day 1, High Fat Diet, Day 22): 0.011
- Avg ANGPTL3 Protein Normalized to Pre-Treatment and Control (Diet Matched) ([2]; 3.0 mg/kg sc day 1, High Fat Diet, Day 29 (pre-second dose)): 0.011
- Avg ANGPTL3 Protein Normalized to Pre-Treatment and Control (Diet Matched) ([2]; 3.0 mg/kg sc day 1, Normal Diet, Day 8): 0.042
- Avg ANGPTL3 Protein Normalized to Pre-Treatment and Control (Diet Matched) ([2]; 3.0 mg/kg sc day 1, Normal Diet, Day 15): 0.037
- Avg ANGPTL3 Protein Normalized to Pre-Treatment and Control (Diet Matched) ([2]; 3.0 mg/kg sc day 1, Normal Diet, Day 22): 0.043
- Avg ANGPTL3 Protein Normalized to Pre-Treatment and Control (Diet Matched) ([2]; 3.0 mg/kg sc day 1, Normal Diet, Day 29 (pre-second dose)): 0.060
- Avg ANGPTL3 Protein Normalized to Pre-Treatment and Control (Diet Matched) ([2]; 3.0 mg/kg sc days 1 and 29, High Fat Diet, Day 36): 0.005
- Avg ANGPTL3 Protein Normalized to Pre-Treatment and Control (Diet Matched) ([2]; 3.0 mg/kg sc days 1 and 29, High Fat Diet, Day 43): 0.005
- Avg ANGPTL3 Protein Normalized to Pre-Treatment and Control (Diet Matched) ([2]; 3.0 mg/kg sc days 1 and 29, High Fat Diet, Day 50): 0.005
- Avg ANGPTL3 Protein Normalized to Pre-Treatment and Control (Diet Matched) ([2]; 3.0 mg/kg sc days 1 and 29, High Fat Diet, Day 57): 0.007
- Avg ANGPTL3 Protein Normalized to Pre-Treatment and Control (Diet Matched) ([2]; 3.0 mg/kg sc days 1 and 29, Normal Diet, Day 36): 0.024
- Avg ANGPTL3 Protein Normalized to Pre-Treatment and Control (Diet Matched) ([2]; 3.0 mg/kg sc days 1 and 29, Normal Diet, Day 43): 0.024
- Avg ANGPTL3 Protein Normalized to Pre-Treatment and Control (Diet Matched) ([2]; 3.0 mg/kg sc days 1 and 29, Normal Diet, Day 50): 0.032
- Avg ANGPTL3 Protein Normalized to Pre-Treatment and Control (Diet Matched) ([2]; 3.0 mg/kg sc days 1 and 29, Normal Diet, Day 57): 0.037
- ANGPTL3 protein normalized to pre-treatment and control (diet matched) [2, 4]: 0.007
- reduction in ANGPTL3 protein levels compared to control [2, 4]: approximately 99%
- Avg LDL Normalized to Pre-Treatment and Control (Diet Matched) ([3]; High Fat Diet, Day 8): 0.547
- Avg LDL Normalized to Pre-Treatment and Control (Diet Matched) ([3]; High Fat Diet, Day 15): 0.476
- Avg LDL Normalized to Pre-Treatment and Control (Diet Matched) ([3]; High Fat Diet, Day 22): 0.429
- Avg LDL Normalized to Pre-Treatment and Control (Diet Matched) ([3]; High Fat Diet, Day 29 (pre-second dose)): 0.419
- Avg LDL Normalized to Pre-Treatment and Control (Diet Matched) ([3]; Normal Diet, Day 8): 0.558
- Avg LDL Normalized to Pre-Treatment and Control (Diet Matched) ([3]; Normal Diet, Day 15): 0.606
- Avg LDL Normalized to Pre-Treatment and Control (Diet Matched) ([3]; Normal Diet, Day 22): 0.662
- Avg LDL Normalized to Pre-Treatment and Control (Diet Matched) ([3]; Normal Diet, Day 29 (pre-second dose)): 0.563

From patent publication US12729377B2, “RNAi agents and compositions for inhibiting expression of angiopoietin-like 3 (ANGPTL3), and methods of use” (Arrowhead Pharmaceuticals, Inc., priority 2017, dated 2026)
